Assay in all cases: growth of human tumour cells (NCI), 48 h
Test [1] has as its system SK-OV-3 ovarian.
Test [2] concerns A498 renal.
Test [3] has as its system MDA-N.
The test system of test [4] is HT29 colon.
Test [5] has as its system SF-268 CNS.
Test [6] deals with RXF 393 renal.
The subject of test [7] is NCI/ADR-RES ovarian.
The subject of test [8] is RPMI-8226 leukemia.
In test [9] the test system is OVCAR-3 ovarian.
In test [10] the test system is SK-MEL-5 melanoma.
The test system of test [11] is HL-60(TB) leukemia.
In test [12] the test system is HCT-15 colon.
In test [13] the test system is UACC-257 melanoma.
For test [14], the system named is SN12C renal.
The subject of test [15] is UO-31 renal.
Test [16] deals with SK-MEL-2 melanoma.

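Values below derive from 48-hour exposures of cells grown in 96-well plates, with endpoints linearly interpolated between the two concentrations bracketing the appropriate inhibition level. TGI marks complete inhibition of growth.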 Where a SMILES comes first, the peptide text is derived from it.

Turning to `S=C(Nc1cccc(C2(N3CCCCC3)CCCCC2)c1)Nc1cccc(C2(N3CCCCC3)CCCCC2)c1`, the TGI is above 100 µM in test [1]; 35.1 µM in [2]; 33.8 µM in [3]; 66.1 µM in test [4]; above 100 µM in [5]; 29.7 µM in test [6]. Besides, the TGI in test [7] is above 100 µM; in [8], 30.7 µM; in test [9] it was 50.5 µM; in test [10], 33.6 µM; in [11] it was 38.2 µM; in [12] it was above 100 µM. The TGI in [13] is 33.4 µM; in [14] it was above 100 µM; in [15] it was 31.5 µM; in test [16] it was 33.3 µM.

In the case of `CC(=O)NC(CO)C(=O)NC(Cc1ccc(O)cc1)C(=O)NCC(N)=O` (stereo not drawn) (Ac-Ser-Tyr-Gly-NH2; configuration not given here), the TGI in test [1], in [2], in test [3], in test [4], in [5] and in [6] was above 100 µM each time. The TGI in test [7], in [8], in test [9], in test [10], in test [11] and in test [12] was above 100 µM in each case. Also, the TGI in test [13], in test [14], in test [15] and in [16] was above 100 µM throughout.

As to `CCN1C(=O)CS/C1=N\NC(=O)CSc1nc2ccccc2c(=O)n1CC`, the TGI in test [1], in test [2], in test [3], in [5], in [6] and in test [7] was above 100 µM each time. For the same compound, the TGI in test [8], in test [9], in test [10], in [11], in test [12] and in [13] was above 100 µM in each case. Further, the TGI in [14], in test [15] and in test [16] was above 100 µM each time.

In the case of `COC(=O)CNCC1OC2OC(C)(C)OC2C1N=[N+]=[N-]` (stereo unspecified), the TGI in [1], in [2], in test [3], in test [4], in test [6] and in test [7] was above 100 µM each time. For the same compound, the TGI in test [8], in [9], in test [10], in test [11], in [12] and in [13] was above 100 µM in each case. For the same compound, the TGI in test [14], in test [15] and in test [16] was above 100 µM each time.

`N#CCN(Cc1ccccc1)[C@@H]1CCC[C@]1(O)C#Cc1ccc2c(c1)OCO2`: the TGI in test [1] came out at 90.1 µM; in test [2], 35.1 µM; in [3], 34.2 µM; in test [4], 36.1 µM; in test [5] it was 41.1 µM; in [6], 30.3 µM. Besides, the TGI in [7] came out at 51.8 µM; in test [8] it was 42.2 µM; in test [9], 28.9 µM; in [10], 30 µM; in test [11] it was 45.1 µM; in [12] it was 66.7 µM. Further, the TGI is 37.9 µM in [13], above 100 µM in test [15] and 33.1 µM in test [16].

As to `O=[N+]([O-])c1ccc2[nH]c(O)c(N=NC(=S)Nc3ccccc3)c2c1`, the TGI in test [1] worked out at 28.2 µM; in test [2], 13.2 µM; in [3] it was 21.7 µM; in test [4], 19 µM; in test [6], 26.4 µM; in [7], 8.62 µM. Besides, the TGI is above 100 µM in [8]; 22.6 µM in test [9]; 13.5 µM in test [10]; 36.3 µM in test [11]; 17 µM in test [12]; 27.4 µM in [13]. Moreover, the figures for the TGI in [14], in test [15] and in test [16] were 25.8 µM, 22 µM and 31.3 µM, respectively.

For `COc1nc(C)nc2c1ncn2Cc1ccccc1`, the TGI in test [1], in test [2], in [3], in [4], in test [5] and in test [6] was above 100 µM each time. Further, the TGI in test [7], in test [8], in [9], in test [10], in [11] and in test [12] was above 100 µM each time. The TGI in test [13] and in test [14] was above 100 µM throughout.

For the origin of these results see PubChem BioAssay (NCI).
